Data published in US6630496B1, “Inhibitors of phospholipase enzymes” (Genetics Institute LLC, priority 1996, dated 2003).

What was measured:
cPLA2 [1] = biological target: T1, cPLA2 (Homo sapiens, UniProt P47712); test: Soluble substrate assay (LysoPC); format: biochemical
T1 sequence (P47712 1-749): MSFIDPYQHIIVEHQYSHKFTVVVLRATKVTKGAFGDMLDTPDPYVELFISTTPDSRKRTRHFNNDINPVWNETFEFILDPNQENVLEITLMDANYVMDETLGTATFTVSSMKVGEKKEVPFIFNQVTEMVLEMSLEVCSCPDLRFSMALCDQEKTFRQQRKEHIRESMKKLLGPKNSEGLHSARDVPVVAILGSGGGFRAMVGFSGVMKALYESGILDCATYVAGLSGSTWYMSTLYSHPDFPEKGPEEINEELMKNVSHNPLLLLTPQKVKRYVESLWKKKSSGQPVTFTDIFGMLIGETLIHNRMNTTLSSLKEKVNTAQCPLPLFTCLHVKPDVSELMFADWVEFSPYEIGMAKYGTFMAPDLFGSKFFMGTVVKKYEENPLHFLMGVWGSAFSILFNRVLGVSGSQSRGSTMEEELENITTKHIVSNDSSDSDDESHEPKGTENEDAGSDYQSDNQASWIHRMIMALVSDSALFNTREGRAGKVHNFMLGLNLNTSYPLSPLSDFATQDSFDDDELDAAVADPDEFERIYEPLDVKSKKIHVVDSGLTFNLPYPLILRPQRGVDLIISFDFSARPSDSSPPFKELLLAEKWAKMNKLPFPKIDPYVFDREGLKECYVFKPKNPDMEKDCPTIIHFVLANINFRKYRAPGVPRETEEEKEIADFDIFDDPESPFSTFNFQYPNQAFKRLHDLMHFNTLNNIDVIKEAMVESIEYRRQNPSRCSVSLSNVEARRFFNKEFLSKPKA
Experimental: (b) Soluble Substrate Assay (LysoPC)
The lipid was resuspended by vortexing 80 mM Hepes pH 7.5, 1 mM EDTA (1.2×final concentration). A typical assay consisted of lipid suspension (85 μl) to which was added consecutively the inhibitor (5 μl in DMSO) and cPLA2, 200 ng in 80 mM Hepes pH 7.5, 2 mM DTT and […]. This assay was conducted by either the manual assay or automated assay protocol described below.

cPLA2 [2] = biological target: T1, cPLA2; test: Coumarine assay (7-hydroxycoumarinyl 6-heptenoate hydrolysis); format: biochemical
Experimental: 7-hydroxycoumarinyl 6-heptenoate was used as a monomeric substrate for cPLA2 as reported previously (Huang, Z. et al., 1994, Analytical Biochemistry 222, 110-115). Inhibitors were mixed with 200 μL assay buffer (80 mM Hepes, pH 7.5, 1 mM EDTA) containing 60 μM 7-hydroxycoumarinyl 6-heptenoate. The reaction was initiated by adding 4 μg cPLA2 in 50 μL assay buffer. Hydrolysis of the 7-hydroxycoumarinyl 6-heptenoate ester was monitored in a fluorometer by exciting at 360 nm and monitoring emission at 460 nm. Enzyme activity is proportional to the increasein emission at 460 nm per minute. In the presence of a cPLA2 inhibitor, the rate of increase is less.

[3] = NA = inhibitory activity not detected, read-out: IC50 (μM) Lyso PC
[4] = 60 μM 7-hydroxycoumarinyl 6-heptenoate, read-out: IC50 (μM) Coumarine

Row | Molecule | IC50 (cPLA2 [1]; [3]) [µM] | IC50 (cPLA2 [2]; [4]) [µM] | IC50 (cPLA2 [1]) [µM] | IC50 (cPLA2 [2]) [µM]
1 | COc1ccc(C(=O)O)cc1NC(=O)CSCC1Cc2cc(OCc3ccccc3)ccc2N1C(=O)COc1ccc2ccccc2c1 (stereo not drawn) [Example 59, 3-(2-(5-Benzyloxy-1-(2-naphthoxyaceiyl)indolinyl)methylthioacetamido)4-methoxybenzoic Acid] | 8.7 | > 30 |  | 
2 | CS(=O)(=O)NC(=O)C1Cc2ccccc2N1Cc1ccc(C(F)(F)F)cc1C(F)(F)F (stereo not drawn) [Example 84, N-Methylsulfonyl-2-(1-(2,4-bis(trifluoromethyl)benzyl)indolinyl)carboxamide] | 23 | > 50 |  | 
3 | O=C(O)c1ccccc1SCC1Cc2cc(OCc3ccccc3)ccc2N1Cc1ccc(Cc2ccccc2)cc1 (stereo not drawn) [Example 78] |  | 3 |  | 
4 | O=C(CSCC1Cc2cc(OCc3ccccc3)ccc2N1Cc1ccc(C(F)(F)F)cc1C(F)(F)F)Nc1cccc(C(=O)O)c1 (stereo not drawn) [Example 74] | 1.1 | 5 |  | 
5 | 3-(2-(5-Benzyloxy-1-tert-butoxycarbonyl)indolinyl)methylsulfonylacetamidobenzoic Acid [Example 64] | 17.6 | > 64 |  | 
6 | C=CCN(C(=O)CSCC1Cc2cc(OCc3ccccc3)ccc2N1C(=O)COc1ccc(C(C)(C)CC)cc1C(C)(C)CC)c1cc(C(=O)O)ccc1OC (stereo not drawn) [Example 71] | 5.9 | 12 |  | 
7 | O=C(CSCC1Cc2cc(OCc3ccccc3)ccc2N1C(=O)COc1ccc(C2C=CCC2)cc1C1C=CCC1)Nc1cccc(C(=O)O)c1 (stereo not drawn) [Example 58] | 0.56 | 4 |  | 
8 | CNC(=O)c1cc(NC(=O)CSCC2Cc3cc(OCc4ccccc4)ccc3N2C(=O)COc2cc(C(F)(F)F)cc(C(F)(F)F)c2)cc(C(=O)O)c1 (stereo not drawn) [Example 43] | 7.1 | 21 |  | 
9 | CCC(C)(C)c1ccc(OCC(=O)c2c(CSCC(=O)Nc3cc(C(=O)O)ccc3OC)n(C)c3ccc(OC)cc23)c(C(C)(C)CC)c1 [Example 12, 3-(2-(3-(2,4-bis(1,1-Dimethypropyl)phenoxyacetyl)-5-methoxy-1-methyl)indolyl)methylthioacetamido-4-methoxybenzoic Acid] |  |  | 4 | 10
10 | O=C(O)CSCC1Cc2cc(OCc3ccccc3)ccc2N1C(=O)COc1cc(C(F)(F)F)cc(C(F)(F)F)c1 (stereo not drawn) [Example 37, 2-(5-Benzyloxy-1-(3,5-bis(trifluoromethyl)phenoxyacetyl)indolinyl)methylthioacetic Acid] | 7.6 | > 30 |  | 
11 | O=C(CSCC1Cc2cc(OCc3ccccc3)ccc2N1Cc1ccc2ccccc2c1)Nc1cccc(C(=O)O)c1 (stereo not drawn) [Example 73, 3-(2-(5-Benzyloxy-1-(2-naphthyl)methy)indolinyl)methylthioacetamidobenzoic Acid] | 1.9 | 6 |  | 
12 | O=C(CSCC1Cc2cc(OCc3ccccc3)ccc2N1CCc1ccncc1)Nc1cccc(C(=O)O)c1 (stereo not drawn) [Example 72] |  | > 64 |  | 
13 | 5-(2-(5-(3,5-Dibromo)benzyloxy-1-(3,5-bis(trifluoromethyl)phenoxyacetyl)indolinyl)methylthioacetamido)benzene-1,3-dicarboxylic Acid [Example 45] | 0.37 | 5 |  | 
14 | 3-(2-(-5-Benzyloxy-1-(2,4-bis(1,1-dimethy)propyl)phenoxyacetyl)indolinyl)methylthioacetamido-4-methylbenzoic Acid [Example 18] | 0.28 | 10 |  | 
15 | CCC(C)(C)c1ccc(OCC(=O)N2c3ccc(OCc4ccccc4)cc3CC2CSc2ccccc2C(=O)NC)c(C(C)(C)CC)c1 (stereo not drawn) [Example 68] | > 50 | > 50 |  | 
16 | CC(=O)c1cc(NC(=O)CSCC2Cc3cc(OCc4ccccc4)ccc3N2C(=O)COc2cc(C(F)(F)F)cc(C(F)(F)F)c2)cc(C(=O)O)c1 (stereo not drawn) [Example 40] | 6.2 | 11 |  | 
17 | CN(C)C(=O)c1cc(NC(=O)CSCC2Cc3cc(OCc4ccccc4)ccc3N2C(=O)COc2cc(C(F)(F)F)cc(C(F)(F)F)c2)cc(C(=O)O)c1 (stereo not drawn) [Example 39] | 4.3 | 18 |  | 
18 | O=C(NS(=O)(=O)c1ccccc1)C1Cc2ccccc2N1Cc1ccc(C(F)(F)F)cc1C(F)(F)F (stereo not drawn) [Example 85] | 21 | > 50 |  | 

Row | Molecule | IC50 (cPLA2 [1]; [3]) [µM] | IC50 (cPLA2 [2]; [4]) [µM] | IC50 (cPLA2 [1]) [µM] | IC50 (cPLA2 [2]) [µM]
19 | 5-(2-(-5-Hydroxy-1-(3,5-bis(trifluoromethyl)phenoxyacetyl)indolinyl)methylthioacetamido)benzene-1,3-dicarboxylic Acid [Example 44] | 27 | > 30 |  | 
20 | O=C(O)c1cccc(NC(=O)c2cc3cc(OCc4ccccc4)ccc3n2Cc2ccccc2)c1 [Example 5, 3-(2-(1-Benzyl-5-benzyloxy)indolecarboxamido)benzoic Acid] |  |  | 4.3 | 52
21 | CC(O)c1cc(NC(=O)CSCC2Cc3cc(OCc4ccccc4)ccc3N2C(=O)COc2cc(C(F)(F)F)cc(C(F)(F)F)c2)cc(C(=O)O)c1 (stereo not drawn) [Example 42] | 7.8 | 14 |  | 
22 | O=C(O)c1ccc(OCc2cc3cc(OCc4ccccc4)ccc3n2C(=O)OCc2ccccc2)cc1 [Example 2, 4-(2-(1-Phenylmethoxycarbonyl-5-phenylmethoxy)indolyl)methoxybenzoic Acid] |  |  | 6 | 
23 | CCC(C)(C)c1ccc(OCC(=O)N2c3ccc(OCc4ccccc4)cc3CC2CSCC(=O)O)c(C(C)(C)CC)c1 (stereo not drawn) [Example 66] | 2.3 | 6 |  | 
24 | 5-(2-(-5-Benzyloxy-1-(3,5-bis(trifluoromethyl)phenoxyacetyl)indolinyl)methylthioacetamido)-3-hydroxymethylbenzoic Acid [Example 41] | 2.2 | 22 |  | 
25 | 5-(2-(-5-Benzyloxy-1-(3,5-bis(trifluoromethyl)phenoxyacetyl)indolinyl)methylthioacetamido)benzene-1,3-dicarboxylic Acid [Example 38] | 6.9 | > 50 |  | 
26 | CCn1c(CSCC(=O)Nc2cc(C(=O)O)ccc2OC)c(C(=O)COc2ccc(C(C)(C)CC)cc2C(C)(C)CC)c2cc(OCc3ccccc3)ccc21 [Example 13] |  |  | 0.5 | 12
27 | O=C(O)c1ccc(CN2c3ccc(OCc4ccccc4)cc3CC2COCc2ccc(C(F)(F)F)cc2C(F)(F)F)cc1 (stereo not drawn) [Example 80, 4-(1-(5-Benzyloxy-2-(bis-2,4-trifluoromethyl)benzyloxymethyl)indolinyl)methylbenzoic Acid] |  | 16 |  | 
28 | 3-(N-(2-(-5-Benzyloxy-1-(2,4-bis(1,1-dimethy)propyl)phenoxyacetyl)indolinyl)methylthioethyl)aminobenzoic Acid [Example 69] | 19.4 | 6 |  | 
29 | O=C(O)c1ccccc1OCc1cc2cc(OCc3ccccc3)ccc2n1C(=O)OCc1ccccc1 [Example 1, 2-(2-(1-Phenylmethoxycarbonyl-5-phenylmethoxy)indolyl)methoxybenzoic Acid] |  |  | 47 | 
30 | CC(C)(c1ccccc1)c1ccc(OCC(=O)N2c3ccc(OCc4ccccc4)cc3CC2CSCC(=O)Nc2cccc(C(=O)O)c2)c(C(C)(C)c2ccccc2)c1 (stereo not drawn) [Example 56] | 0.47 | 5 |  | 
31 | O=C(O)c1cccc(OCc2cc3cc(OCc4ccccc4)ccc3n2C(=O)OCc2ccccc2)c1 [Example 3, 3-(2-(1-Phenylmethoxycarbonyl-5-phenylmethoxy)indolyl)methoxybenzoic Acid] |  |  | 6.5 | 14
32 | COc1ccc(C(=O)O)cc1NC(=O)CSCC1Cc2cc(OCc3ccccc3)ccc2N1C(=O)COc1ccc(Cc2ccccc2)cc1 (stereo not drawn) [Example 60] | 4.6 | > 30 |  | 
33 | O=C(O)c1ccc(CN2c3ccc(OCc4ccccc4)cc3CC2COCc2ccc3ccccc3c2)cc1 (stereo not drawn) [Example 81] | 3.2 | 15 |  | 
34 | COc1ccc(COc2ccc3c(c2)CC(CNC(=O)Nc2cc(C(=O)O)cc(C(=O)O)c2)N3Cc2ccc(C(F)(F)F)cc2C(F)(F)F)cc1 (stereo not drawn) [Example 86] |  | 17 |  | 
35 | COc1ccc(C(=O)O)cc1NC(=O)CSCC1Cc2cc(OCc3ccccc3)ccc2N1Cc1ccc(C(F)(F)F)cc1C(F)(F)F (stereo not drawn) [Example 75] | 7 | 6.2 |  | 
36 | O=C(O)c1cc(NC(=O)C2Cc3ccccc3N2Cc2ccc(C(F)(F)F)cc2C(F)(F)F)cc(C(=O)O)c1 (stereo not drawn) [Example 83] | > 50 | > 50 |  | 
